Test results: the supplement of paper PMC6045584
± gives the standard deviation of the averaged measurements.

Columns and labels:
[1] = compound: C[C@@H](Oc1cc(-c2cnn(C3CCNCC3)c2)cnc1N)c1c(Cl)ccc(F)c1Cl; experiment: surviving fraction relative to DMSO-only wells; higher = less growth inhibition; conditions: exposure time: 5 days
Method in brief: (§1)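 Viability values are CellTiter-Glo luminescence readings, given as surviving fraction against the median of DMSO-only wells. The readings were taken after 10 minutes at room temperature, following five days of continuous exposure to inhibitors at 0.5, 1, 5, 10, 50, 100, 500 and 1000 nM that began 24 hours after log-phase tumour cell lines were seeded at 250–500 cells per well in 384-well plates. Every line was screened three times and kept only if replicate Pearson r >0.7 and median Z' >0.3.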

[2] = compound: COc1cc2ncnc(Nc3ccc(F)c(Cl)c3)c2cc1NC(=O)/C=C/CN1CCCCC1; experiment: as above; conditions: exposure time: 5 days
Method in brief: as §1

SCC003 HEADNECK
surviving fraction ([1]; 0.5 nM): 0.763 ± 0.099 | surviving fraction ([1]; 5 nM): 0.835 ± 0.042 | surviving fraction ([1]; 10 nM): 0.818 ± 0.03 | surviving fraction ([1]; 50 nM): 1.04 ± 0.047 | surviving fraction ([1]; 100 nM): 0.982 ± 0.047 | surviving fraction ([1]; 500 nM): 0.672 ± 0.081 | surviving fraction ([1]; 1000 nM): 0.417 ± 0.025 | surviving fraction ([2]; 0.5 nM): 1.01 ± 0.031 | surviving fraction ([2]; 1 nM): 0.95 ± 0.19 | surviving fraction ([2]; 5 nM): 0.845 ± 0.11 | surviving fraction ([2]; 10 nM): 0.861 ± 0.082 | surviving fraction ([2]; 50 nM): 0.554 ± 0.072 | surviving fraction ([2]; 100 nM): 0.535 ± 0.079 | surviving fraction ([2]; 500 nM): 0.405 ± 0.053 | surviving fraction ([2]; 1000 nM): 0.356 ± 0.031

SCC36 HEADNECK
surviving fraction ([1]; 0.5 nM): 0.784 ± 0.039 | surviving fraction ([1]; 1 nM): 0.784 ± 0.07 | surviving fraction ([1]; 5 nM): 0.742 ± 0.077 | surviving fraction ([1]; 10 nM): 0.742 ± 0.071 | surviving fraction ([1]; 50 nM): 0.913 ± 0.021 | surviving fraction ([1]; 500 nM): 0.403 ± 0.022 | surviving fraction ([1]; 1000 nM): 0.255 ± 0.011 | surviving fraction ([2]; 0.5 nM): 0.84 ± 0.054 | surviving fraction ([2]; 1 nM): 0.889 ± 0.024 | surviving fraction ([2]; 5 nM): 0.656 ± 0.059 | surviving fraction ([2]; 10 nM): 0.618 ± 0.0085 | surviving fraction ([2]; 50 nM): 0.432 ± 0.014 | surviving fraction ([2]; 100 nM): 0.424 ± 0.057 | surviving fraction ([2]; 500 nM): 0.338 ± 0.022 | surviving fraction ([2]; 1000 nM): 0.235 ± 0.013

SCC47 HEADNECK
surviving fraction ([1]; 0.5 nM): 0.909 ± 0.012 | surviving fraction ([1]; 1 nM): 0.9017 ± 0.0072 | surviving fraction ([1]; 5 nM): 0.988 ± 0.018 | surviving fraction ([1]; 10 nM): 0.924 ± 0.037 | surviving fraction ([1]; 50 nM): 1.06 ± 0.031 | surviving fraction ([1]; 100 nM): 0.96 ± 0.066 | surviving fraction ([1]; 500 nM): 0.721 ± 0.017 | surviving fraction ([1]; 1000 nM): 0.472 ± 0.024 | surviving fraction ([2]; 0.5 nM): 0.927 ± 0.031 | surviving fraction ([2]; 1 nM): 0.976 ± 0.041 | surviving fraction ([2]; 5 nM): 0.804 ± 0.1 | surviving fraction ([2]; 10 nM): 0.745 ± 0.028 | surviving fraction ([2]; 50 nM): 0.625 ± 0.026 | surviving fraction ([2]; 100 nM): 0.59 ± 0.025 | surviving fraction ([2]; 500 nM): 0.512 ± 0.031 | surviving fraction ([2]; 1000 nM): 0.375 ± 0.039

SCC90 HEADNECK
surviving fraction ([1]; 1 nM): 0.913 ± 0.028 | surviving fraction ([1]; 5 nM): 0.934 ± 0.045 | surviving fraction ([1]; 50 nM): 1.12 ± 0.098 | surviving fraction ([1]; 100 nM): 1.17 ± 0.13 | surviving fraction ([1]; 500 nM): 0.717 ± 0.028 | surviving fraction ([2]; 0.5 nM): 0.948 ± 0.041 | surviving fraction ([2]; 1 nM): 0.938 ± 0.039 | surviving fraction ([2]; 5 nM): 0.647 ± 0.1 | surviving fraction ([2]; 10 nM): 0.608 ± 0.018 | surviving fraction ([2]; 50 nM): 0.388 ± 0.017 | surviving fraction ([2]; 100 nM): 0.4 ± 0.024 | surviving fraction ([2]; 500 nM): 0.377 ± 0.066 | surviving fraction ([2]; 1000 nM): 0.294 ± 0.023

SG27 HEADNECK
surviving fraction ([1]; 0.5 nM): 1.01 ± 0.016 | surviving fraction ([1]; 10 nM): 0.893 ± 0.07 | surviving fraction ([1]; 50 nM): 1 ± 0.089 | surviving fraction ([1]; 100 nM): 0.92 ± 0.045 | surviving fraction ([1]; 1000 nM): 0.668 ± 0.053 | surviving fraction ([2]; 0.5 nM): 1.06 ± 0.071 | surviving fraction ([2]; 1 nM): 1.16 ± 0.22 | surviving fraction ([2]; 5 nM): 0.944 ± 0.14 | surviving fraction ([2]; 10 nM): 0.937 ± 0.07 | surviving fraction ([2]; 50 nM): 0.927 ± 0.014 | surviving fraction ([2]; 100 nM): 1.01 ± 0.061 | surviving fraction ([2]; 500 nM): 0.988 ± 0.015 | surviving fraction ([2]; 1000 nM): 0.864 ± 0.024

SG28 HEADNECK
surviving fraction ([1]; 1 nM): 0.918 ± 0.053 | surviving fraction ([1]; 5 nM): 0.85 ± 0.067 | surviving fraction ([1]; 50 nM): 1 ± 0.042 | surviving fraction ([1]; 100 nM): 1.07 ± 0.098 | surviving fraction ([1]; 1000 nM): 0.764 ± 0.12 | surviving fraction ([2]; 0.5 nM): 0.962 ± 0.064 | surviving fraction ([2]; 1 nM): 0.924 ± 0.058 | surviving fraction ([2]; 5 nM): 0.626 ± 0.026 | surviving fraction ([2]; 10 nM): 0.54 ± 0.013 | surviving fraction ([2]; 50 nM): 0.514 ± 0.029 | surviving fraction ([2]; 100 nM): 0.494 ± 0.025 | surviving fraction ([2]; 500 nM): 0.375 ± 0.037 | surviving fraction ([2]; 1000 nM): 0.238 ± 0.019

SG31 HEADNECK
surviving fraction ([1]; 1 nM): 0.821 ± 0.04 | surviving fraction ([1]; 5 nM): 0.821 ± 0.059 | surviving fraction ([1]; 10 nM): 0.843 ± 0.18 | surviving fraction ([1]; 50 nM): 0.847 ± 0.063 | surviving fraction ([1]; 100 nM): 0.845 ± 0.088 | surviving fraction ([1]; 500 nM): 0.755 ± 0.061 | surviving fraction ([1]; 1000 nM): 0.485 ± 0.07 | surviving fraction ([2]; 0.5 nM): 0.973 ± 0.13 | surviving fraction ([2]; 1 nM): 0.87 ± 0.19 | surviving fraction ([2]; 5 nM): 0.617 ± 0.16 | surviving fraction ([2]; 10 nM): 0.624 ± 0.086 | surviving fraction ([2]; 50 nM): 0.556 ± 0.14 | surviving fraction ([2]; 100 nM): 0.519 ± 0.07 | surviving fraction ([2]; 500 nM): 0.486 ± 0.1 | surviving fraction ([2]; 1000 nM): 0.524 ± 0.021

SG32 HEADNECK
surviving fraction ([1]; 0.5 nM): 0.809 ± 0.17 | surviving fraction ([1]; 1 nM): 0.907 ± 0.093 | surviving fraction ([1]; 5 nM): 0.931 ± 0.15 | surviving fraction ([1]; 10 nM): 0.799 ± 0.11 | surviving fraction ([1]; 50 nM): 0.955 ± 0.15 | surviving fraction ([1]; 500 nM): 0.475 ± 0.06 | surviving fraction ([1]; 1000 nM): 0.359 ± 0.092 | surviving fraction ([2]; 0.5 nM): 1.24 ± 0.15 | surviving fraction ([2]; 1 nM): 0.962 ± 0.098 | surviving fraction ([2]; 5 nM): 0.846 ± 0.018 | surviving fraction ([2]; 10 nM): 0.958 ± 0.046 | surviving fraction ([2]; 50 nM): 0.819 ± 0.071 | surviving fraction ([2]; 100 nM): 0.865 ± 0.029 | surviving fraction ([2]; 500 nM): 0.695 ± 0.061 | surviving fraction ([2]; 1000 nM): 0.301 ± 0.034

SG43 HEADNECK
surviving fraction ([1]; 0.5 nM): 1.14 ± 0.1 | surviving fraction ([1]; 1 nM): 1.22 ± 0.16 | surviving fraction ([1]; 10 nM): 1.09 ± 0.22 | surviving fraction ([1]; 50 nM): 0.946 ± 0.37 | surviving fraction ([1]; 100 nM): 0.816 ± 0.13 | surviving fraction ([1]; 500 nM): 0.564 ± 0.14 | surviving fraction ([1]; 1000 nM): 0.256 ± 0.082 | surviving fraction ([2]; 0.5 nM): 0.807 ± 0.14 | surviving fraction ([2]; 1 nM): 0.929 ± 0.044 | surviving fraction ([2]; 5 nM): 0.529 ± 0.18 | surviving fraction ([2]; 10 nM): 0.341 ± 0.057 | surviving fraction ([2]; 50 nM): 0.199 ± 0.018 | surviving fraction ([2]; 100 nM): 0.226 ± 0.022 | surviving fraction ([2]; 500 nM): 0.281 ± 0.095 | surviving fraction ([2]; 1000 nM): 0.196 ± 0.057

SIHA CERVIX
surviving fraction ([1]; 0.5 nM): 0.92 ± 0.038 | surviving fraction ([1]; 1 nM): 0.931 ± 0.01 | surviving fraction ([1]; 10 nM): 0.931 ± 0.034 | surviving fraction ([1]; 50 nM): 0.99 ± 0.011 | surviving fraction ([1]; 100 nM): 1.07 ± 0.068 | surviving fraction ([1]; 500 nM): 0.676 ± 0.042 | surviving fraction ([1]; 1000 nM): 0.628 ± 0.075 | surviving fraction ([2]; 0.5 nM): 1.05 ± 0.12 | surviving fraction ([2]; 1 nM): 0.994 ± 0.043 | surviving fraction ([2]; 5 nM): 1.02 ± 0.082 | surviving fraction ([2]; 10 nM): 1.1 ± 0.074 | surviving fraction ([2]; 50 nM): 1.04 ± 0.11 | surviving fraction ([2]; 100 nM): 1.06 ± 0.11 | surviving fraction ([2]; 500 nM): 0.862 ± 0.055 | surviving fraction ([2]; 1000 nM): 0.672 ± 0.067

SJSA1 BONE
surviving fraction ([1]; 0.5 nM): 0.881 ± 0.019 | surviving fraction ([1]; 1 nM): 0.9053 ± 0.0031 | surviving fraction ([1]; 5 nM): 0.912 ± 0.062 | surviving fraction ([1]; 10 nM): 0.935 ± 0.023 | surviving fraction ([1]; 50 nM): 1.06 ± 0.069 | surviving fraction ([1]; 100 nM): 1.05 ± 0.05 | surviving fraction ([1]; 500 nM): 0.889 ± 0.053 | surviving fraction ([1]; 1000 nM): 0.622 ± 0.0085 | surviving fraction ([2]; 0.5 nM): 1.04 ± 0.071 | surviving fraction ([2]; 1 nM): 1.08 ± 0.072 | surviving fraction ([2]; 5 nM): 1.05 ± 0.053 | surviving fraction ([2]; 10 nM): 1.09 ± 0.016 | surviving fraction ([2]; 50 nM): 1.1 ± 0.043 | surviving fraction ([2]; 100 nM): 1.14 ± 0.074 | surviving fraction ([2]; 500 nM): 1.04 ± 0.072 | surviving fraction ([2]; 1000 nM): 1.01 ± 0.03
